Experimental data published in patent publication US7495022B2, “α,β-unsaturated hydroxamic acid derivatives and their use as histone deacetylase inhibitors” (SK Chemicals Co., Ltd., priority 2002, dated 2009).

Legend:
Assay type in all cases: cell-based
A-549, lung cancer = test: In vitro cytotoxicity, MTT assay, A-549; conditions: A549, 96 h, A-549 human lung cancer cells, 4 days incubation
Protocol: (§1) Three human cancer cell lines (A-549, lung cancer; SK-BR-3, breast cancer; MKN-45, stomach cancer) were tested in MTT assay. These cell lines were grown in RPMI 1640 medium supplemented with penicillin-streptomycin (100 units/mL) and 10% heat-inactivated fetal bovine serum under standard culture condition (20% O2 and 5% CO2, 37° C.). Single-cell suspensions were prepared by trypsinization and pipette disaggregation. The number of cells for each cell line plated in 96-well microtiter plates was determined from the growth curve obtained in MTT assay. Test compounds were diluted from stock solution in DMSO into fresh medium to a 10× concentration. Cells were inoculated into each well in 180 μL of medium and eight different concentrations of 20 μL of test compounds were added to each well. The plates were then incubated for 4 days at 37° C., 5% CO2. After 4 days of culture, 0.1 mg (20 μL of 5 mg/mL) of MTT was added to each well. The plates were then incubated at 37° C. for 4 hours. After the plates were centrifuged at 1,000 rpm for 10 minutes, the supernatant was aspirated. 150 μL of DMSO was added to each well to solubilize formazan crystals. The plates were read immediately at 550 nm on Elisa reader (Dynatech, MR 5000).

SK-BR-3, breast cancer = test: In vitro cytotoxicity, MTT assay, SK-BR-3; conditions: 96 h, SK-BR-3 human breast cancer cells, 4 days incubation
Protocol: as §1

MKN-45, stomach cancer = test: In vitro cytotoxicity, MTT assay, MKN-45; conditions: 96 h, MKN-45 human stomach cancer cells, 4 days incubation
Protocol: as §1

Row | SMILES | IC50 (A-549, lung cancer) [µM] | IC50 (SK-BR-3, breast cancer) [µM] | IC50 (MKN-45, stomach cancer) [µM]
1 | O=C(C=Cc1ccc(CNC(=O)c2ccccn2)cc1)NO [Example 4, N-[4-(2-Hydroxycarbamoylvinyl)benzyl]picolinamide] | 2.23 | 0.87 | 3.64
2 | CN(C)c1ccc(C(=O)NCc2ccc(C=CC(=O)NO)cc2)cc1 [Example 6, 4-Dimethylamino-N-[4-(2-hydroxycarbamoylvinyl)benzyl]benzamide] | 0.48 | 0.16 | 0.83
3 | O=C(C=Cc1ccc(CNC(=O)c2ccc(N3CCN(Cc4ccncc4)CC3)cc2)cc1)NO [Example 3, N-[4-(2-Hydroxycarbamoylvinyl)benzyl]-4-(4-pyridin-4-ylmethylpiperazin-1-yl)benzamide] | 3.02 | 1.72 | 56.1
4 | O=C(C=Cc1ccc(CNC(=O)OCc2cccnc2)cc1)NO [Example 8, [4-(2-Hydroxycarbamoylvinyl)benzyl]carbamic acid pyridin-3-ylmethyl ester] | 2.61 | 1.12 | 3.34
5 | O=C(C=Cc1ccc(CNC(=O)c2cccnc2)cc1)NO [Example 7, N-[4-(2-Hydroxycarbamoylvinyl)benzyl]nicotinamide] | 2.89 | 1.28 | 4.98
6 | O=C(C=Cc1ccc(CS(=O)(=O)c2ccccc2)cc1)NO [Example 10, 3-[4-(Benzenesulfonylmethyl)phenyl]-N-hydroxyacrylamide] | 11.1 | 4.57 | 8.34
7 | O=C(C=Cc1ccc(CNC(=O)c2ccc(N3CCCC3)cc2)cc1)NO [Example 5, N-[4-(2-Hydroxycarbamoylvinyl)benzyl]-4-pyrrolidin-1-ylbenzamide] | 0.35 | 0.11 | 0.8
8 | O=C(C=Cc1ccc(CS(=O)(=O)Nc2cccnc2)cc1)NO [Example 9, N-Hydroxy-3-[4-(pyridin-3-ylsulfamoylmethyl)phenyl]acrylamide] | 37 | 22.9 | 62
9 | O=C(C=Cc1ccc(CNC(=O)c2ccc(N3CCN(Cc4ccccn4)CC3)cc2)cc1)NO [Example 2, N-[4-(2-Hydroxycarbamoylvinyl)benzyl]-4-(4-pyridin-2-ylmethylpiperazin-1-yl)benzamide] | 1.65 | 0.27 | 2.94
10 | O=C(C=Cc1ccc(CNC(=O)c2ccc(N3CCN(Cc4cccnc4)CC3)cc2)cc1)NO [Example 1, N-[4-(2-Hydroxycarbamoylvinyl)benzyl]-4-(4-pyridin-3-ylmethylpiperazin-1-yl)benzamide] | 12 | 3.19 | 38.6
